Data taken from patent US20230009608A1, “GRK2 INHIBITORS AND USES THEREOF” (Cygnal Therapeutics, Inc., priority 2020, published 2023).
Like-named read-outs stand apart in the source and are kept apart here.

Assays:
[1] = biological target: T1, GRK2 (Homo sapiens, UniProt P25098); experiment: ADPGlo GRK2 Inhibition Assay (Example 8); type: biochemical; settings: read-out: A: Enzymatic GRK2: IC50 (nM) (Example 8)
T1 construct: purchased SignalChem A14-10G
T1 sequence (P25098 1-689): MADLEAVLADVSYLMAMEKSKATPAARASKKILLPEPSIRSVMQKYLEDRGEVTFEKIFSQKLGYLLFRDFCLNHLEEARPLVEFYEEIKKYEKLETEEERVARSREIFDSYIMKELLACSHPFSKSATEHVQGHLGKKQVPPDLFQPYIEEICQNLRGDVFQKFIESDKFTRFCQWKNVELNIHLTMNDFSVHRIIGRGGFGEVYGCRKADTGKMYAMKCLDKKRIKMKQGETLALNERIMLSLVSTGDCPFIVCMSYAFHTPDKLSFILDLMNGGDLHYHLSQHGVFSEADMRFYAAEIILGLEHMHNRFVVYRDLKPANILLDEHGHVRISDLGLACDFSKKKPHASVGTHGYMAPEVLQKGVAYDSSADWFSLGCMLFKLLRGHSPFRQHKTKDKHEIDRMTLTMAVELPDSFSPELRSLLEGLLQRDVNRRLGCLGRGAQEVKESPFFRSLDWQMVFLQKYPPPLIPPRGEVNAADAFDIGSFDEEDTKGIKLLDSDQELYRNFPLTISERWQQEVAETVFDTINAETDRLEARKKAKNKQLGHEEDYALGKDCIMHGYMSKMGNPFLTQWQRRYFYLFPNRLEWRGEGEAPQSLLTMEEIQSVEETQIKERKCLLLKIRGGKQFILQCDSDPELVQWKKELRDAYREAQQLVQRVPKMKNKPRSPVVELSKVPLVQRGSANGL
In short: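 GRK2 (15 nM 2× enzyme solution) was preincubated 15 min with compound, then reacted 180 min at room temperature with 2× mix of 20 μM ATP plus GRKtide in HEPES pH 7.5, MgCl2, Tween-20, DTT. ADP was detected by ADP-Glo luminescence. Percent inhibition was normalised to enzyme and no-enzyme controls, with dose-response curves from threefold dilutions starting at 100 μM.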

[2] = system: PAXF1657 control empty vector cell line; experiment: 7-day proliferation assay, PAXF1657 control empty vector cell line (Example 9); type: cell-based; settings: 168 h; Cell Line: PAXF1657 empty vector (EV) cell line; 7-day; read-out: C: 7-day proliferation assay: IC50 GeoMean
In short: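 Read-out is CellTiter-Glo luminescence after 7 days of continuous exposure, with compound re-dosed in fresh medium at day 3. Cells were seeded at 500/well and treated across 30 μM-0.0002 μM (10 points, 0.3% DMSO); baseline viability plates were read at compound addition.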

[3] = Enzyme Assay A, ADPGlo (Example 8)

Compound | IC50 [1, 3] [nM] | IC50 ([1]; ADPGlo GRK2 enzyme assay) [nM] | IC50 [2] [nM]
COc1cccc2c1OCC[C@H]2NC(=O)c1cccc(NCc2nnc(-c3ccncn3)n2C)c1 | 26.1 |  | 7740
COc1cccc2c1OCC[C@@H]2NC(=O)c1cccc(NCc2nnc(-c3ccncn3)n2C)c1 | 87.5 |  | 470
COc1ccc2c(c1)OCC[C@H]2NC(=O)c1cccc(NCc2nnc(-c3ccncn3)n2C)c1 | 60.9 |  | 485
COc1ccc2c(c1)[C@H](NC(=O)c1cccc(NCc3nnc(-c4ccncn4)n3C)c1)CCO2 | 15.2 |  | > 30000
Cn1c(CNc2cccc(C(=O)N[C@@H]3CCOc4ccc(C(F)(F)F)cc43)c2)nnc1-c1ccncn1 | 8.09 |  | 594
CCOc1cccc(CNC(=O)c2cccc(NCc3nnc(-c4ccncn4)n3C)c2)c1 |  | 73.6 | > 30000
CCOc1ccc(CNC(=O)c2cccc(NCc3nnc(-c4ccncn4)n3C)c2)cc1 |  | 35.3 | 1200
Cn1c(CNc2cccc(C(=O)NCc3ccc(C(F)F)nc3)c2)nnc1-c1ccncn1 |  | 44.6 | > 4160
COc1ccc(CNC(=O)c2cccc(NCc3nnc(-c4ccncn4)n3C)c2)cc1F |  | 30.1 | 6650
Cn1c(CNc2cccc(C(=O)NC3COc4ccccc4C3)c2)nnc1-c1ccncn1 (stereo not shown) |  | 68.4 | > 12600
Cc1ccc2c(c1)C(NC(=O)c1cccc(NCc3nnc(-c4ccncn4)n3C)c1)CO2 (stereo not shown) |  | 18.8 | 332
Cn1c(CNc2cccc(C(=O)NCC3COc4ccccc43)c2)nnc1-c1ccncn1 (stereo not shown) |  | 54.7 | > 5210
Cn1c(CNc2cccc(C(=O)NC(CCO)c3ccccc3)c2)nnc1-c1ccncn1 (stereo not shown) |  | 26.4 | 1090
Cc1ccc(C(C)NC(=O)c2cccc(NCc3nnc(-c4ccncn4)n3C)c2)nc1 (stereo not shown) |  | 74 | > 5020
CC(C)C(NC(=O)c1cccc(NCc2nnc(-c3ccncn3)n2C)c1)c1ccccn1 (stereo not shown) |  | 52.8 | 1900
Cn1ccnc1C(NC(=O)c1cccc(NCc2nnc(-c3ccncn3)n2C)c1)C1CC1 (stereo not shown) |  | 52.9 | 3750
COc1ccc(C(C)NC(=O)c2cccc(NCc3nnc(-c4ccncn4)n3C)c2)cn1 (stereo not shown) |  | 22.6 | 1710
Cn1c(CNc2cccc(C(=O)NC(c3ccccn3)C3CC3)c2)nnc1-c1ccncn1 (stereo not shown) |  | 68.9 | 2630

Compound | IC50 [1, 3] [nM] | IC50 ([1]; ADPGlo GRK2 enzyme assay) [nM] | IC50 [2] [nM]
Cn1c(CNc2cccc(C(=O)NCc3ccccc3N3CCNCC3)c2)nnc1-c1ccncn1 |  | 65.8 | 7890
Cn1c(CNc2cccc(C(=O)NC3CCc4c(O)cccc43)c2)nnc1-c1ccncn1 (stereo not shown) |  | 47.2 | 8840
Cn1c(CNc2cccc(C(=O)N[C@H](C#N)c3cc(F)ccc3F)c2)nnc1-c1ccncn1 |  | 17.7 | 808
Cn1c(CNc2cccc(C(=O)N[C@H](C#N)c3cccnc3)c2)nnc1-c1ccncn1 |  | 20.3 | 3430
CCCn1c(CNc2cccc(C(=O)N[C@H](C)c3cccc(OC)c3)c2)nnc1-c1ccncn1 |  | 40.1 | > 219
COc1cccc([C@@H](C)NC(=O)c2cccc(NCc3nnc(-c4ccncc4)n3CCO)c2)c1 |  | 99.4 | > 30000
C[C@H](NC(=O)c1cccc(NCc2nnc(-c3ccncc3)n2CCO)c1)c1ncccc1Cl |  | 28.3 | 80.9
COc1cccc([C@@H](C)NC(=O)c2cccc(NCc3nnc(-c4ccncc4F)n3C)c2)c1 |  | 181 | > 30000
C[C@H](NC(=O)c1cccc(NCc2nnc(-c3ccncc3F)n2C)c1)c1ncccc1Cl |  | 52.8 | 1030
C[C@@H](NC(=O)c1cccc(NCc2nnc(-c3ccncc3F)n2C)c1)c1ncccc1Cl |  | 54.7 | 135
Cn1c(CNc2cc(C(=O)N[C@H]3COCc4ccccc43)ccn2)nnc1-c1ccncn1 |  | 71.1 | 11000
Cn1c(CNc2cc(C(=O)N[C@H]3COc4cc(F)ccc43)ccn2)nnc1-c1ccncn1 |  | 118 | 1930
COc1ncc(Br)cc1CNC(=O)c1ccnc(NCc2nnc(-c3ccncn3)n2C)c1 |  | 28.1 | > 30000
COc1cccc([C@H](C)NC(=O)c2ccnc(NCc3nnc(-c4ccncn4)n3C)c2)c1 |  | 125 | 8000
Cn1c(CNc2cccc(C(=O)NCc3cnc4ccccn34)c2)nnc1-c1ccncc1F |  | 39 | > 30000
Cn1c(CNc2cccc(C(=O)N[C@H](CCO)c3ccccc3)c2)nnc1-c1ccncc1F |  | 18 | > 30000
Cn1c(CNc2cccc(C(=O)N[C@@H](CCO)c3ccccc3)c2)nnc1-c1ccncc1F |  | 28.9 | > 1440
Cn1c(CNc2cccc(C(=O)NCc3ccccc3C(F)(F)F)c2)nnc1-c1ccncc1F |  | 39.1 | > 2320

The next lines start with results.

IC50 [1, 3] [nM] | IC50 ([1]; ADPGlo GRK2 enzyme assay) [nM] | Compound | IC50 [2] [nM]
 | 7.43 | CC1Oc2ccccc2C1NC(=O)c1cccc(NCc2nnc(-c3ccncn3)n2C)c1 (stereo not shown) | 1790
 | 8.2 | COc1cccc(C)c1CNC(=O)c1cccc(NCc2nnc(-c3ccncn3)n2C)c1 | 246
 | 16.2 | Cc1cncc(C(C)NC(=O)c2cccc(NCc3nnc(-c4ccncn4)n3C)c2)c1 (stereo not shown) | 784
 | 5.78 | CN(C)S(=O)(=O)c1cccc(F)c1CNC(=O)c1cccc(NCc2nnc(-c3ccncn3)n2C)c1 | 263
 | 15.7 | Cn1c(CNc2cccc(C(=O)N[C@@H](C#N)c3cc(F)ccc3F)c2)nnc1-c1ccncn1 | 244
 | 4.63 | Cc1ccccc1[C@H](C#N)NC(=O)c1cccc(NCc2nnc(-c3ccncn3)n2C)c1 | 30.4
 | 4.97 | Cc1ccccc1[C@@H](C#N)NC(=O)c1cccc(NCc2nnc(-c3ccncn3)n2C)c1 | 35.5
 | 12.6 | CCCCCOc1ccc2c(c1)[C@@H](NC(=O)c1cccc(NCc3nnc(-c4ccncn4)n3C)c1)CCO2 | 2130
 | 8.3 | CCCCCOc1ccc2c(c1)[C@@H](NC(=O)c1cccc(NCc3nnc(-c4ccncn4)n3C)c1)CO2 | 236
 | 14.1 | CCCn1c(CNc2cccc(C(=O)N[C@@H](C)c3cccc(OC)c3)c2)nnc1-c1ccncn1 | > 30000
 | 6.52 | COc1cccc([C@H](C)NC(=O)c2cccc(NCc3nnc4n3CCOc3cnccc3-4)c2)c1 | 10100
 | 15.9 | COc1cccc([C@@H](C)NC(=O)c2cccc(NCc3nnc4n3CCOc3cnccc3-4)c2)c1 | > 3650
 | 2.41 | COc1cccc([C@H](C)NC(=O)c2cccc(NCc3nnc(-c4ccncn4)n3CCO)c2)c1 | 30.7
 | 4.91 | COc1cccc([C@@H](C)NC(=O)c2cccc(NCc3nnc(-c4ccncn4)n3CCO)c2)c1 | 1230
 | 2.99 | COc1cccc([C@H](C)NC(=O)c2cccc(NCc3nnc(-c4ccncc4)n3CCO)c2)c1 | > 30000
 | 11.6 | COc1cccc([C@H](C)NC(=O)c2cccc(NCc3nnc(-c4ccncc4F)n3C)c2)c1 | > 30000
 | 5.77 | O=C(NCc1cnc2ccccn12)c1cccc(NCc2nnc(-c3ccncc3)n2CCO)c1 | > 30000
 | 5.86 | Cc1cccc2ncc(CNC(=O)c3cccc(NCc4nnc(-c5ccncc5)n4CCO)c3)n12 | > 30000
 | 14.3 | CCc1cnccc1CNC(=O)c1cccc(NCc2nnc(-c3ccncc3)n2CCO)c1 | > 30000
 | 7.07 | Cc1ccc(C#N)cc1CNC(=O)c1ccnc(NCc2nnc(-c3ccncn3)n2C)c1 | 1410
 | 9.89 | COc1cccc([C@@H](C)NC(=O)c2ccnc(NCc3nnc(-c4ccncn4)n3C)c2)c1 | 468
 | 8.9 | Cc1cccc2ncc(CNC(=O)c3cccc(NCc4nnc(-c5ccncc5)[nH]4)c3)n12 | > 10200
 | 12.2 | Cc1cccnc1CNC(=O)c1cccc(NCc2nnc(-c3ccncc3)[nH]2)c1 | > 30000
 | 3.76 | [2H]C([2H])(Nc1cccc(C(=O)N[C@@H]2COc3ccccc32)c1)c1nnc(-c2ccncn2)n1CCO | 96
 | 3.91 | Cc1cccc2ncc(CNC(=O)c3cccc(NCc4nnc(-c5ccncc5F)n4C)c3)n12 | > 1360
 | 3.23 | [2H]C([2H])(Nc1cccc(C(=O)N[C@H]2CCOc3ccccc32)c1)c1nnc(-c2ccncn2)n1CCO | 94
